Experimental data reported in ChEMBL document CHEMBL1134855, “Synthesis and hypoglycemic evaluation of substituted pyrazole-4-carboxylic acids” (2002).

Experiments:
Format in all cases: functional
[1] = system: Rattus norvegicus; test: Evolution of glycemia 2 hr after first administration at the dose of 20 mg/kg in rat
[2] = system: Rattus norvegicus; test: Evolution of glycemia 2 hr after the last administration for 4 days chronic treatment at the dose of 200 mg/kg in rat
[3] = system: Rattus norvegicus; test: Evolution of glycemia 2 hr after the last administration for 4 days chronic treatment at the dose of 20 mg/kg in rat
[4] = system: Rattus norvegicus; test: Evolution of glycemia 2 hr after first administration at the dose of 200 mg/kg in rat

O=C(O)c1c[nH]nc1OCc1ccccc1
Glyceamia evolution [1]: 1%
Glyceamia evolution [2]: -15%
Glyceamia evolution [3]: -24%
Glyceamia evolution [4]: -1%

COc1nn(Cc2ccc(-c3ccccc3C#N)cc2)cc1C(=O)O
Glyceamia evolution [1]: -5%
Glyceamia evolution [2]: -3%
Glyceamia evolution [3]: -10%
Glyceamia evolution [4]: 1%

N#Cc1ccccc1-c1ccc(Cn2cc(C(=O)O)c(OCc3ccccc3)n2)cc1
Glyceamia evolution [1]: -5%
Glyceamia evolution [2]: -3%
Glyceamia evolution [3]: -10%
Glyceamia evolution [4]: -4%

COc1nn(C)cc1C(=O)O
Glyceamia evolution [1]: -7%
Glyceamia evolution [2]: -10%
Glyceamia evolution [3]: -10%
Glyceamia evolution [4]: -5%

Cn1cc(C(=O)O)c(OCc2ccccc2)n1
Glyceamia evolution [1]: -4%
Glyceamia evolution [2]: -4%
Glyceamia evolution [3]: 2%
Glyceamia evolution [4]: -5%

C=CCn1cc(C(=O)O)c(OC)n1
Glyceamia evolution [1]: 3%
Glyceamia evolution [2]: 6%
Glyceamia evolution [3]: 1%
Glyceamia evolution [4]: 5%

O=C(O)c1cn(Cc2nn[nH]n2)nc1OCc1ccccc1
Glyceamia evolution [1]: 0%
Glyceamia evolution [2]: -7%
Glyceamia evolution [3]: -7%
Glyceamia evolution [4]: -2%

COc1nn(CC=C(C)C)cc1C(=O)O
Glyceamia evolution [1]: 3%
Glyceamia evolution [2]: -11%
Glyceamia evolution [3]: -3%
Glyceamia evolution [4]: -8%

N#Cc1ccccc1-c1ccc(COc2n[nH]cc2C(=O)O)cc1
Glyceamia evolution [1]: -7%
Glyceamia evolution [2]: -5%
Glyceamia evolution [3]: -11%
Glyceamia evolution [4]: 0%

COC(=O)CCn1cc(C(=O)O)c(OCc2ccccc2)n1
Glyceamia evolution [1]: -3%
Glyceamia evolution [2]: -3%
Glyceamia evolution [3]: -7%
Glyceamia evolution [4]: -13%

CCOC(=O)Cn1cc(C(=O)O)c(OCc2ccccc2)n1
Glyceamia evolution [1]: -8%
Glyceamia evolution [2]: -3%
Glyceamia evolution [3]: -6%
Glyceamia evolution [4]: 0%

COc1[nH]ncc1C(=O)O
Glyceamia evolution [1]: -19%
Glyceamia evolution [2]: -8%
Glyceamia evolution [3]: -20%
Glyceamia evolution [4]: -4%

Cn1cc(C(=O)O)c(=O)[nH]1
Glyceamia evolution [1]: 0%
Glyceamia evolution [2]: -16%
Glyceamia evolution [3]: -12%
Glyceamia evolution [4]: -12%

O=C(CCn1cc(C(=O)O)c(OCc2ccccc2)n1)Nc1ccc(Cl)cc1
Glyceamia evolution [1]: -16%
Glyceamia evolution [2]: -19%
Glyceamia evolution [3]: -10%
Glyceamia evolution [4]: -19%

CCOC(=O)CCCn1cc(C(=O)O)c(OCc2ccccc2)n1
Glyceamia evolution [1]: -1%
Glyceamia evolution [2]: -6%
Glyceamia evolution [3]: -3%
Glyceamia evolution [4]: -1%

O=C(O)c1c[nH]nc1O
Glyceamia evolution [1]: -12%
Glyceamia evolution [2]: 2%
Glyceamia evolution [3]: -9%
Glyceamia evolution [4]: 7%

O=C(O)c1cn(Cc2ccccc2)nc1OCc1ccccc1
Glyceamia evolution [1]: -6%
Glyceamia evolution [2]: -9%
Glyceamia evolution [3]: -5%
Glyceamia evolution [4]: -14%

CN(C)C(=N)NC(=N)N [METFORMIN]
Glyceamia evolution [2]: -24%
Glyceamia evolution [4]: -24%
